Entries after “also recorded” stand apart in the source; their conditions may differ.
Legend:
BtsuOBP83a = assay: Fluorescence competitive binding assay (1-NPN probe), recombinant BtsuOBP83a; design: species or system Bactrocera tsuneonis; conditions: for Ki: relative dissociation constant calculated from IC50, competition with 1-NPN, ligand 4–32 μmol/L, pH 7.4, read-out: Ki (μM) OBP83a; for binding to BtsuOBP83a (in words): fluorescence competitive binding assay
From the text: (§1) Full-length sequences of BtsuOBP83a and BtsuOBP83b were amplified using specific primers (Supplementary Table S1). Purified PCR products were cloned into the pGEM-T vector (Promega) for sequencing verification. The confirmed target fragments were then subcloned into the pET-30a(+) expression vector (Sangon) using restriction enzymes (Supplementary Table S2) and T4 DNA ligase (Takara). Recombinant plasmids were transformed into Escherichia coli BL21 (DE3) competent cells (Tiangen). Bacterial cultures were grown to an OD600 of 0.6–0.8, after which protein expression was induced by adding isopropyl-β-D-thiogalactopyranoside (IPTG) (Solarbio) to a final concentration of 1 mM at different temperatures. Cells were harvested by centrifugation (5,000 × g, 15 minutes), lysed in phosphate-buffered saline buffer via sonication, and subjected to sodium dodecyl sulfate–polyacrylamide gel electrophoresis (SDS-PAGE) analysis after heat treatment. Large-scale protein expression was performed under optimized induction conditions. Soluble proteins in the supernatant were purified twice using Ni-affinity chromatography (GE Healthcare). His-tags were removed using enterokinase (Novoprotein). All purification steps were conducted at 4°C. The size and purity of OBP proteins were evaluated via SDS-PAGE, and protein concentrations were determined using the Bradford method.
(§2) The ligand-binding affinities of candidate OBPs were evaluated using fluorescence competitive binding assays performed on an F-380 Fluorescence Spectrophotometer (Tianfang), with modifications to the standard procedure. Purified OBP proteins were diluted to a final concentration of 2 μmol/L in 50 mmol/L Tris-HCl buffer (pH 7.4). The fluorescent probe N-phenyl-1-naphthylamine (1-NPN) and all candidate volatile ligands were dissolved in high-performance liquid chromatography–grade methanol at an initial concentration of 1 mmol/L. The binding constant between OBPs and 1-NPN was determined by recording emission spectra from 350 to 470 nm at an excitation wavelength of 337 nm. To establish binding saturation, titrations were conducted by sequentially adding 1-NPN to the protein solution, reaching final concentrations of 2–20 μmol/L in 2-μmol/L increments. Fluorescence intensity was measured after stabilization, and each measurement was performed in triplicate. […] Each experiment was conducted in triplicate. Dissociation constants (Ki) for the volatile ligands were calculated from the corresponding IC50 values using the following equation: […]

BtsuOBP83b = assay: Fluorescence competitive binding assay (1-NPN probe), recombinant BtsuOBP83b; design: species or system Bactrocera tsuneonis; conditions: for Ki: relative dissociation constant calculated from IC50, competition with 1-NPN, ligand 4–32 μmol/L, pH 7.4, read-out: Ki (μM) OBP83b
From the text: as §1, §2

Row | SMILES | Ki (BtsuOBP83a) [µM] | Ki (BtsuOBP83b) [µM] | Kd (BtsuOBP83a; BtsuOBP83a 2 μmol/L, 50 mmol/L Tris-HCl pH 7.4, 1-NPN 2–20 μmol/L, Scatchard, read-out: dissociation constants (Kd) for 1-NPN) [µM] | Kd (BtsuOBP83b; BtsuOBP83b 2 μmol/L, 50 mmol/L Tris-HCl pH 7.4, 1-NPN 2–20 μmol/L, Scatchard, read-out: dissociation constants (Kd) for 1-NPN) [µM] | binding to BtsuOBP83a (in words) (BtsuOBP83a)
1 | CCCCCCCCCCCCF [1-Fluorododecane] | > 50 | > 50 |  |  | 
2 | CCCCCCO [1-Hexanol] | > 50 | 31.8 |  |  | 
3 | CC1=CCCC1 [1-Methylcyclopentene] | > 50 | > 50 |  |  | 
4 | c1ccc(Nc2cccc3ccccc23)cc1 [1-NPN, N-phenyl-1-naphthylamine, reference compound] |  |  | 5.48 | 6.92 | 
5 | CCCCCCCCO [1-Octanol] | 36.4 | 39.1 |  |  | 
6 | CCc1ccco1 [2-Ethylfuran] | > 50 | > 50 |  |  | 
7 | CCCC=CC=O [2-Hexenal] | 42.7 | 31.9 |  |  | 
8 | COc1cc(C)ccc1C(C)C [2-Isopropyl-5-methylanisole] | > 50 | > 50 |  |  | 
9 | C#Cc1cccc(N)c1 [3-Ethynylaniline] | > 50 | > 50 |  |  | 
10 | CC1=C[C@@H]2C(=C(C)CC[C@H]2C(C)C)CC1 [(+)-delta-Cadinene] | > 50 | > 50 |  |  | 
11 | CC1=CC[C@@H](C(C)(C)O)CC1 [(L)-alpha-terpineol] | > 50 | > 50 |  |  | 
12 | CCCCOC(=O)C(C)CC (stereo not drawn) [Butyl 2-methylbutyrate] | > 50 | > 50 |  |  | 
13 | CCCCOC(=O)CCC [Butyl butyrate] | > 50 | > 50 |  |  | 
14 | CCCCCCCC(=O)OCCCC [Butyl caprylate] | > 50 | > 50 |  |  | 
15 | CCCCOC(=O)CC [Butyl propionate] | > 50 | > 50 |  |  | 
16 | Cc1ccc(C(C)C)cc1O [Carvacrol] | > 50 | > 50 |  |  | 
17 | CC(C)c1ccccc1 [Cumene] | > 50 | > 50 |  |  | 
18 | CCOC(=O)C(C)CC (stereo not drawn) [Ethyl 2-methylbutyrate] | > 50 | > 50 |  |  | 
19 | C/C=C/C(=O)OCC [Ethyl crotonate] | > 50 | > 50 |  |  | 
20 | CCCCCC(=O)OCC [Ethyl hexanoate] | > 50 | > 50 |  |  | 
21 | CCCCC/C=C/C(=O)OCC [Ethyl trans-2-octenoate] | 46.3 | > 50 |  |  | 
22 | CCCCC(=O)OCC [Ethyl valerate] | > 50 | > 50 |  |  | 

Row | SMILES | Ki (BtsuOBP83a) [µM] | Ki (BtsuOBP83b) [µM] | Kd (BtsuOBP83a; BtsuOBP83a 2 μmol/L, 50 mmol/L Tris-HCl pH 7.4, 1-NPN 2–20 μmol/L, Scatchard, read-out: dissociation constants (Kd) for 1-NPN) [µM] | Kd (BtsuOBP83b; BtsuOBP83b 2 μmol/L, 50 mmol/L Tris-HCl pH 7.4, 1-NPN 2–20 μmol/L, Scatchard, read-out: dissociation constants (Kd) for 1-NPN) [µM] | binding to BtsuOBP83a (in words) (BtsuOBP83a)
23 | CCOC(C)=O [Ethylacetate] | > 50 | 33 |  |  | 
24 | CCc1ccccc1 [Ethylbenzene] | > 50 | > 50 |  |  | 
25 | CCCCCC=O [Hexanal] | 40.7 | 33.7 |  |  | 
26 | CC(=O)OCCC(C)C [Isoamyl acetate] | > 50 | 33.5 |  |  | 
27 | CCCC(=O)OCCC(C)C [Isoamyl butyrate] | > 50 | > 50 |  |  | 
28 | C=C1CC/C=C(/C)CC[C@@H]2[C@@H]1CC2(C)C [Isocaryophyllene] | > 50 | > 50 |  |  | 
29 | CC(C)CCO [Isopentyl alcohol] | > 50 | 40.2 |  |  | 
30 | CC(C)=CCC/C(C)=C\CO [Nerol] | > 50 | > 50 |  |  | 
31 | CC(=O)OC/C=C(/C)CCC=C(C)C [Neryl acetate] | > 50 | > 50 |  |  | 
32 | CCCCCCCCOC(C)=O [Octyl acetate] | > 50 | > 50 |  |  | 
33 | CC1=CC(=O)C(C(C)C)CC1 (stereo not drawn) [Piperitone] | 17.9 | > 50 |  |  | selectively binds; also recorded: binds strongly; also recorded: strong binding affinity
34 | CCCCCC(=O)OCCC [Propyl Hexanoate] | > 50 | > 50 |  |  | 
35 | C=Cc1ccccc1 [Styrene] | > 50 | > 50 |  |  | 
36 | CC1=CCCC(C)(C)C12CCC(C)O2 (stereo not drawn) [Theaspirane] | > 50 | > 50 |  |  | 
37 | CC1=CCC2CC1C2(C)C (stereo not drawn) [alpha-Pinene] | 49.2 | > 50 |  |  | 
38 | C=C1CC/C=C(\C)CC[C@@H]2[C@@H]1CC2(C)C [beta-Caryophyllene] | > 50 | > 50 |  |  | 
39 | CC/C=C\CCO [cis-3-Hexen-1-ol] | 32.1 | 31.8 |  |  | 
40 | CC/C=C\CCOC(=O)CC [cis-3-Hexenyl propionate] | > 50 | > 50 |  |  | 
41 | C=C(C)[C@H]1CC=C(C)C(=O)C1 [d-Carvone] | > 50 | > 50 |  |  | 
42 | CCC/C=C/COC(=O)CCC [trans-2-Hexenyl Butyrate] | > 50 | 28.5 |  |  | 
43 | CCC/C=C/COC(=O)CC [trans-2-Hexenyl propionate] | > 50 | > 50 |  |  | 
44 | C=CC(C)(O)CC/C=C(\C)CCC=C(C)C (stereo not drawn) [trans-Nerolidol] | 9.36 | > 50 |  |  | selectively binds; also recorded: binds strongly; also recorded: strong binding affinity

— publication PMC12723664, “A high-quality chromosome-level genome assembly of the oligophagous fruit fly Bactrocera tsuneonis (Diptera: Tephritidae) and insights into its host specificity” (GigaScience, 2025)
